# Data as given in patent EP2805705B1, “Packaging with one or more administration units comprising a sodium salt of (R)-3-[6-amino-pyridin-3-yl]-2-(1-cyclohexyl-1 H-imidazol-4-yl)-propionic acid” (IP Gesellschaft für Management mbH, priority 2013, dated 2014).
# Columns and labels:
# Assay type in all cases: physicochemical
# [1] = Maturation experiments (slurry conversion), relative stability; conditions: among polymorphs 1, 2 and hydrate 1, suspensions kept five days at 20 °C, then dried at 40°C and <100 mbar
# Experimental: Maturation experiments: By maturation experiments (slurry conversion) at 20 °C the relative stability of polymorphs 1 ({drug5b}) and 2 ({drug5c}) and hydrate 1 ({drug5e}) was investigated. A polymorph mixture of 81 mg (Mixture of Polymorph 1 ({drug5b}) and Polymorph 2 ({drug5c})), 83 mg of Polymorph 1 ({drug5b}) and 60 mg of hydrate 1 ({drug5e}) was prepared. The mixture was subjected to XRPD analysis to confirm the presence of all three polymorphs and then distributed into five capillaries. These samples were kept in suspension at 20°C for five days. After X-ray powder diffraction measurement of the suspensions these were dried over night at 40°C and <100mbar and again subjected to X-ray diffraction. Maturation experiments (a) to (e) were performed under the specified conditions, starting with the polymorph mixture described above. (a) The polymorph mixture was suspended in water. After stirring the suspension for five days at 20 °C, the suspension was analyzed via XRPD and a mixture of polymorph 1 ({drug5b}) and hydrate 1 ({drug5e}) was proven. […] (b) The polymorph mixture was suspended in water/methanol 1:1 (vol.: vol.). […] (c) The polymorph mixture was suspended in 2-propanol. […] (d) The polymorph mixture was suspended in acetone. […] (e) The polymorph mixture was suspended in ethylacetate. […]
# [2] = Solubility in water (statement, no method given); conditions: result in words
# [3] = Dynamic vapor sorption (DVS), DVS-1 instrument, two cycles at 25 °C; conditions: for weight increase in the sorption step: 25 °C
# [4] = Determination of solubility in a mixture of acetone and water (4:1, by volume); conditions: acetone and water (4:1, by volume)
# Experimental: Determination of solubility: For the determination of the solubility in a mixture of acetone and water (4:1, by volume), samples of 0.5 mg to 50 mg of the test substances were suspended in a defined amount of the solvent (800 mg to 1200 mg) in screw cap vials with a magnetic stirring bar, which were placed in a temperature-controlled multiple stirring device equipped for transmission measurement (Avantium Crystal 16). With stirring at 700 rpm, the vials were cooled from room temperature to 0 °C and then heated to 60 °C with a heating rate of 3 °C/h, kept at 60 °C for 2 h and cooled again to 0 °C with a cooling rate of 3 °C/h. By means of transmission measurement it was determined whether the sample was dissolved (100 % transmission), or crystals were present. For polymorph 1 ({drug5b}), polymorph 2 ({drug5c}), hydrate 1 ({drug5e}) and hydrate 2 ({drug5f}) of compound (V) the following solubilities in a mixture of acetone and water (4:1, by volume) were determined.
# [5] = Chiral stability on storage for 14 days (chiral HPLC)
# Experimental: Example 4: Chiral stability: Representative samples of the crystalline salt of (R)-3-(6-amino-pyridin-3-yl)-2-(1-cyclohexyl-1 H-imidazol-4-yl)-propionic acid ethyl ester with naphthalene-1,5disulfonic acid were prepared as described in example 1 amd stored for 14 days under described conditions (A), (B), (C) and (D): Results:
# The enantiomeric purity of the sample measured at the beginning of measurement was 99.0%. Under the storage conditions 50°C (A) and 50°C and 80% relative humidity (B) a small increase of 0.2% of the (S)-enantiomers was observed. Under storage conditions 80°C (C), no change can be observed. Under the storage condition 80°C and 80% relative humidity (D) an increase of 2.7% of (S)-enantiomers was are observed. The measurements were made as described in Example 1 by chromatography on a chiral phase, Chiral HPLC (Chiralcel OD-H/84 (250x4.6 mm), heptane: isopropanol: acetonitrile 15:1: 0.5 +0.1% diethylamine (DEA), 30°C, 1 ml / min): Rt = 27.01 min.
# [6] = Physical stability on storage for 14 days (XRPD, thermogravimetry); conditions: stored 14 days under conditions (A), (B), (C) and (D)
# Experimental: Example 3: Physical stability: Representative samples of the crystalline salt of (R)-3-(6-amino-pyridin-3-yl)-2-(1-cyclohexyl-1 H-imidazol-4-yl)-propionic acid ethyl ester with naphthalene-1,5-disulfonic acid as in Example 1 are produced and are stored for 14 days under the conditions (A), (B), (C) and (D): (A) 50°C; (B) 50°C and 80% relative humidity; (C) 80°C; (D) 80°C and 80% relative humidity.
compound,measurement,setting,value
"CNc1nccc(-c2cc3cc(C(=O)N[C@@H](CN(c4ccccc4)c4ncccn4)C(N)=O)ccc3[nH]2)n1 [Polymorph 1, 2-(2-methylamino-pyrimidin-4-yl)-1 H-indole-5-carboxylic acid [(S)-1-carbamoyl-2-(phenyl-pyrimidin-2-yl-amino)-ethyl]-amide]",relative thermodynamic stability,[1],thermodynamically most stable polymorph
same,relative thermodynamic stability,[1]; listed as polymorph 1,thermodynamically most stable
same,solubility in water,[2],low solubility in water
same,weight increase in the sorption step,"[3]; Relative humidity 40 %, first cycle",0.5 % / 0.5%
same,weight increase in the sorption step,"[3]; Relative humidity 40 %, second cycle",0.5 % / 0.5%
same,weight increase in the sorption step,"[3]; Relative humidity 60 %, first cycle",0.6 % / 0.6%
same,weight increase in the sorption step,"[3]; Relative humidity 60 %, second cycle",0.6 % / 0.6%
same,weight increase in the sorption step,"[3]; Relative humidity 80 %, first cycle",0.9 % / 0.9%
same,weight increase in the sorption step,"[3]; Relative humidity 80 %, second cycle",0.9 % / 0.9%
same,weight increase in the sorption step,"[3]; Relative humidity 95 %, first cycle",1.3%
same,weight increase in the sorption step,"[3]; Relative humidity 95 %, second cycle",1.4%
same,water uptake (hygroscopicity),[3]; at a high relative humidity of 80 %,about 0.9%
same,Solubility [g in 100 g of solvent],[4]; Temperature 36.9 °C,0.43 g in 100 g of solvent
same,Solubility [g in 100 g of solvent],[4]; Temperature 44.7 °C,0.50 g in 100 g of solvent
same,Solubility [g in 100 g of solvent],[4]; Temperature 60.0 °C,0.85 g in 100 g of solvent
"CCOC(=O)[C@H](Cc1ccc(N)nc1)c1cn(C2CCCCC2)cn1.O=S(=O)(O)c1cccc2c(S(=O)(=O)O)cccc12 [naphthalene-1,5-disulfonic acid salt of (R)-3-(6-amino-pyridin-3-yl)-2-(1-cyclohexyl-1 H-imidazol-4-yl)-propionic acid-ethylester]",enantiomeric purity,[5]; at the beginning of measurement,99.0%
same,increase of (S)-enantiomers,"[5]; storage condition 80°C and 80% relative humidity (D), 14 days",2.7%
same,enantiomeric purity,"[5]; storage condition (A) 50°C, 14 days",98.8%
same,enantiomeric purity,"[5]; storage condition (B) 50°C and 80% relative humidity, 14 days",98.8%
same,enantiomeric purity,"[5]; storage condition (C) 80°C, 14 days",99.0%
same,enantiomeric purity,"[5]; storage condition (D) 80°C and 80% relative humidity, 14 days",96.3%
same,increase of the (S)-enantiomers,"[5]; storage conditions 50°C (A) and 50°C and 80% relative humidity (B), 14 days",0.2%
same,change of enantiomeric purity,"[5]; storage conditions 80°C (C), 14 days",no change
same,XRPD measurements at the beginning and after 14 days,[6],close to each other
